These results are taken from ChEMBL document CHEMBL4610037, “Discovery of 5-(pyridin-3-yl)-1H-indole-4,7-diones as indoleamine 2,3-dioxygenase 1 (IDO1) inhibitors” (Bioorg Med Chem Lett, 2020).

Assay [1] deals with T1, Indoleamine 2,3-dioxygenase 1 (Homo sapiens, UniProt P14902). Description: Inhibition of IFNgamma-stimulated IDO1 in human HeLa cells. In kind it is cell-based.
Target sequence in this assay (P14902 whole entry): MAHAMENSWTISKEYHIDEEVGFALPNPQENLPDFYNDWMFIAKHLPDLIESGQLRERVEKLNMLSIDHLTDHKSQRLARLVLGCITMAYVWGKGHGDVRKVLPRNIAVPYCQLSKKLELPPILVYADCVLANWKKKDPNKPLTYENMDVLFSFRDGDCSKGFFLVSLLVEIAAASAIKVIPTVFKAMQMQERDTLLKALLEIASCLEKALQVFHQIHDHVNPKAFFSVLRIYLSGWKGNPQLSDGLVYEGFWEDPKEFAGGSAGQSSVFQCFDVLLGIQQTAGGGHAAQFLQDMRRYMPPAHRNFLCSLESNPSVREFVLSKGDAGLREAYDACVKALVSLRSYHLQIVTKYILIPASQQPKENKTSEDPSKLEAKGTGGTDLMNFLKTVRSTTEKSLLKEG
The target in assay [2] is T1, Indoleamine 2,3-dioxygenase 1. Description: Inhibition of recombinant human IDO1 expressed in Escherichia coli at 10 uM relative to control.
Target sequence in this assay (P14902 whole entry, looked up): as the sequence (P14902 whole entry) above
Assay [3] has the same target. Description: Inhibition of recombinant human IDO1 expressed in Escherichia coli.
Target sequence in this assay (P14902 whole entry): as above
The target is the same in assay [4]. Description: Competitive inhibition of recombinant human IDO1 expressed in Escherichia coli at 1 to 4 uM using L-tryptophan as substrate.
Target sequence in this assay (P14902 whole entry, looked up): as the sequence (P14902 whole entry) above
The target is the same in assay [5]. Description: Reversible inhibition of recombinant human IDO1 expressed in Escherichia coli at 100 uM using L-tryptophan as substrate.
Target sequence in this assay (P14902 whole entry, looked up): as the sequence (P14902 whole entry) above

Activity calls are given as the source filed them. The rule behind the calls is not given here. Bounds are passed on as bounds.

Take `CCN(CC)CCc1c[nH]c2c1C(=O)C(c1cccnc1)=CC2=O`: in assay [1], the half-maximal effective concentration (EC50) – broadly, the midpoint of the concentration-response curve – was above 10000 nM. For the same compound, the inhibition (as a rule, the relative decrease from the control value, in per cent) in assay [2] was 64.2%. The IC50 (as a rule, the midpoint of a concentration-inhibition curve) in assay [3] amounted to 2260 nM.

For `CC(C)(C)OC(=O)NCCc1c[nH]c2c1C(=O)C(c1ccc(F)cc1)=CC2=O`, the inhibition in assay [2] came to 43.3%.

With `CC(C)(C)OC(=O)NCCc1c[nH]c2c1C(=O)C(c1ccncc1)=CC2=O`, in assay [2], the inhibition came to 12.4%.

Take `O=C1C=C(c2cccnc2)C(=O)c2c(CCNC3CCCCC3)c[nH]c21`: the midpoint of the response in assay [1], the EC50, lay at 2540 nM. Besides, the inhibition in assay [2] was found to be 65%. Moreover, the IC50 in assay [3] came to 1500 nM.

In assay [1], `CC(C)(C)OC(=O)NCCc1c[nH]c2c1C(=O)C(c1cccnc1)=CC2=O` displayed an EC50 of 5400 nM. For the same compound, the inhibition in assay [2] stood at 66.5%. Besides, in assay [3], the IC50 worked out at 1900 nM. For the same compound, the inhibition entry in assay [4] and in assay [5] was “Active” each time.

For `CC(=O)NCCc1c[nH]c2c1C(=O)C(c1cccnc1)=CC2=O`, the EC50 in assay [1] was above 10000 nM. Also, the inhibition in assay [2] worked out at 57.5%. Also, the IC50 in assay [3] is 1360 nM.

`O=C1C=C(c2cccnc2)C(=O)c2c(CCNCCc3ccccc3)c[nH]c21`: in assay [1], the EC50 is above 10000 nM. For the same compound, the inhibition in assay [2] was determined as 68.3%. Besides, the IC50 in assay [3] is 4000 nM.

In assay [1], `CCCCNCCc1c[nH]c2c1C(=O)C(c1cccnc1)=CC2=O` showed a concentration giving a half-maximal response (EC50) of 2720 nM. Moreover, the inhibition in assay [2] amounted to 79.2%. In addition, the 50% inhibitory concentration (IC50) in assay [3] is 880 nM.

The compound `NCCc1c[nH]c2c1C(=O)C(c1cccnc1)=CC2=O` registered an EC50 in assay [1] of 6620 nM. Besides, the inhibition in assay [2] is 74.9%. The concentration for half-maximal inhibition (IC50) in assay [3] was determined as 510 nM.

On to `O=C(NCCc1c[nH]c2c1C(=O)C(c1cccnc1)=CC2=O)c1ccccc1`, for which, in assay [1], the midpoint of the response, the EC50, lay at 5090 nM. The inhibition in assay [2] came out at 65.7%. Moreover, the IC50 in assay [3] is 2080 nM.

`CC(C)NCCc1c[nH]c2c1C(=O)C(c1cccnc1)=CC2=O` displayed an EC50 in assay [1] of 2600 nM. Also, in assay [2], the inhibition came to 63.8%. Further, the IC50 in assay [3] stood at 510 nM.

On to `CN(C)CCc1c[nH]c2c1C(=O)C(c1cccnc1)=CC2=O`, for which a half-maximal effect in assay [1] (EC50) was put at 4220 nM. Further, in assay [2], the inhibition was determined as 71.3%. In assay [3], the half-maximal inhibitory concentration (IC50) turned out to be 500 nM.

`CC(C)(C)CNCCc1c[nH]c2c1C(=O)C(c1cccnc1)=CC2=O` returned an EC50 in assay [1] of 4530 nM. The inhibition in assay [2] came out at 79.5%. Further, the IC50 in assay [3] was determined as 560 nM.

On to `CC(C)(C)OC(=O)NCCc1c[nH]c2c1C(=O)C(c1ccccc1)=CC2=O`, for which the inhibition in assay [2] came to 56.4%. Further, the IC50 in assay [3] is 2940 nM.

In the case of `COc1ccc(C2=CC(=O)c3[nH]cc(CCNC(=O)OC(C)(C)C)c3C2=O)cc1`, the inhibition in assay [2] was found to be 34.5%.

`CC(C)(C)OC(=O)NCCc1c[nH]c2c1C(=O)C(c1ccccc1F)=CC2=O`: in assay [2], the inhibition worked out at 67.3%. In addition, the IC50 in assay [3] stood at 2090 nM.

For `CCNCCc1c[nH]c2c1C(=O)C(c1cccnc1)=CC2=O`, the EC50 in assay [1] came to 3580 nM. Further, the inhibition in assay [2] came to 81.7%. In addition, the IC50 in assay [3] was found to be 160 nM.

`O=C1C=C(c2cccnc2)C(=O)c2c(CCNS(=O)(=O)c3ccccc3)c[nH]c21` displayed a concentration giving a half-maximal response (EC50) in assay [1] of 4920 nM. The inhibition in assay [2] was 59.7%. In assay [3], the IC50 worked out at 3510 nM.

On to `COc1ccccc1C1=CC(=O)c2[nH]cc(CCNC(=O)OC(C)(C)C)c2C1=O`, for which, in assay [2], the inhibition was 63.2%. Besides, the IC50 in assay [3] is 2380 nM.

`Cc1ccc(C2=CC(=O)c3[nH]cc(CCNC(=O)OC(C)(C)C)c3C2=O)cc1`: in assay [2], the inhibition was 25.5%.

For `CC(C)(C)C(=O)NCCc1c[nH]c2c1C(=O)C(c1cccnc1)=CC2=O`, in assay [1], the 50% effective concentration (EC50) came out at 4600 nM. For the same compound, the inhibition in assay [2] was 72.3%. In addition, the IC50 in assay [3] came out at 770 nM.
